# Measured values taken from patent US8940756B2, “Dihydronaphthyridines and related compounds useful as kinase inhibitors for the treatment of proliferative diseases” (Deciphera Pharmaceuticals, Inc., priority 2012, dated 2015).
# What was measured:
# [1] = molecular target: T1, c-KIT VVDV kinase (V559 and V560 deleted and D816V mutation, Seq ID no. 5) (Homo sapiens, UniProt P10721, D816V/DEL559-560); assay: cKIT-VVDV Kinase Assay; assay type: biochemical; conditions: enzymatic assay, ATP 200 uM
# T1 construct: This construct contains residues T544-V976 of cKit (except for the D816V mutation and the deletion of residues V559 and V560); GST (N); TEV cleavage site (N); purchased deCODE Biostructures
# T1 sequence (P10721 with tags, fused parts or gaps DEL559-560/D816V): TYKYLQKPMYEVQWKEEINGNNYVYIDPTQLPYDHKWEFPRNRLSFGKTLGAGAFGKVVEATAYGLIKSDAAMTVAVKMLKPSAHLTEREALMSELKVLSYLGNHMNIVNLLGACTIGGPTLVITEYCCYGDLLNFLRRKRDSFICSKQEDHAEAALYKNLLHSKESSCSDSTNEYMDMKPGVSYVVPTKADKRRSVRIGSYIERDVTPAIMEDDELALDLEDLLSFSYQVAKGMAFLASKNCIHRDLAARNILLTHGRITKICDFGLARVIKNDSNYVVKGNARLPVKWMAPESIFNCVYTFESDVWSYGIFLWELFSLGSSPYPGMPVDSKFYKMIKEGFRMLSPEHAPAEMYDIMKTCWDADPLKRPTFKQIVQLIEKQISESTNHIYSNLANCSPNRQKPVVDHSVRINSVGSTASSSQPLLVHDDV
# Method: In this assay, the oxidation of NADH (measured by decrease in absorbance at 340 nm) was continuously monitored spectrophotometrically. […] The inhibition reaction was started by mixing serial diluted test compound with the above reaction mixture. The absorption at 340 nm was monitored continuously for 5 hours at 30° C. on Synergy 2 plate reader (BioTech). […] The protein construct was prepared by deCODE Biostructures using procedures known in the art. This construct contains […] of cKit (except for the D816V […]), an N-terminal tag, a GST-fusion sequence and a TEV cleavage site. This construct is identical to Seq ID no. 1 except for the D816V […].
# [2] = molecular target: T2, Phospho-KIT (Tyr719) in GIST T1 cells (Homo sapiens, UniProt P10721, DEL560-578); assay: GIST T1 KIT Western Blot; assay type: cell-based; conditions: 4 hours, read-out: pKIT suppression by western blot analysi GIST T1
# T2 construct: endogenous in cells; host or cells: GIST T1
# T2 sequence (P10721 with tags, fused parts or gaps DEL560-578): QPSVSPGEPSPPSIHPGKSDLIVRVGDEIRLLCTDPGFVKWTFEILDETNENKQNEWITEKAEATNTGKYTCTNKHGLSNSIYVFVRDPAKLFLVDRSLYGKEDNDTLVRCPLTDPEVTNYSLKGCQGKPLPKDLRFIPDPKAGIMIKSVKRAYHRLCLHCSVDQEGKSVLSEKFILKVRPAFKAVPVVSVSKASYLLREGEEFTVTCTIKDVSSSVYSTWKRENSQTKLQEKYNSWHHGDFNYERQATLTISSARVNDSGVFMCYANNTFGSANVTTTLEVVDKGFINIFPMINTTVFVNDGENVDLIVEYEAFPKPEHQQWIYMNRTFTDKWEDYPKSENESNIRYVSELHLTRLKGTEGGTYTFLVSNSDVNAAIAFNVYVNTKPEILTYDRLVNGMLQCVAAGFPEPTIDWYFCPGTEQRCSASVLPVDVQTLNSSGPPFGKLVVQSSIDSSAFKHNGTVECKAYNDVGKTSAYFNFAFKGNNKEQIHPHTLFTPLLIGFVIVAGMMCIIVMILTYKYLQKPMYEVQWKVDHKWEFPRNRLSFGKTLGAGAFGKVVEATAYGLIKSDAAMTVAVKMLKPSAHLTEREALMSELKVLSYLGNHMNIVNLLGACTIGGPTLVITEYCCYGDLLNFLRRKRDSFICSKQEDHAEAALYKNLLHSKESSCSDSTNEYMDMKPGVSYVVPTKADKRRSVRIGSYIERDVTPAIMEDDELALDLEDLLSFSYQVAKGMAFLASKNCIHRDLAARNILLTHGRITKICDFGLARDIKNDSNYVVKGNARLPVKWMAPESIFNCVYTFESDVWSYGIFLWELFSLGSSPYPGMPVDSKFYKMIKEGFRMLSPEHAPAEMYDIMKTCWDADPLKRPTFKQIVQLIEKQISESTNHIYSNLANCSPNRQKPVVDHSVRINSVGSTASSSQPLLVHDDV
# Method: GIST48, GIST430, and GIST882 cells were obtained from J. Fletcher (Brigham and Women's Hospital, Boston, Mass.). GIST T1 cells were obtained from B. Rubin (Cleveland Clinic, Cleveland, Ohio) and Professor Takahiro Taguchi (Kochi Medical School, Nankoku, Kochi, Japan). […] GIST430 cells were grown in Ham's F10 medium supplemented with 15% characterized fetal bovine serum (Invitrogen, Carlsbad, Calif.), 30 mg/L bovine pituitary extract (BD Biosciences, San Jose, Calif.), 0.5% Mito+ serum extender (BD Biosciences, San Jose, Calif.), 1 unit/mL penicillin G, 1 μg/ml streptomycin, and 0.29 mg/mL L-glutamine at 37° C., 5% CO2, 95% humidity. GIST T1 cells were grown in DMEM medium supplemented with 10% characterized fetal bovine serum (Invitrogen, Carlsbad, Calif.), 1 unit/mL penicillin G, 1 ng/ml streptomycin, and 0.29 mg/mL L-glutamine at 37° C., 5% CO2, and 95% humidity. […]
# One hundred twenty-five thousand cells were added per well in a 24-well tissue-culture treated plate. […] Phospho-KIT (Tyr719) was detected using an antibody from Cell Signaling Technology (Beverly, Mass.), ECL Plus detection reagent (GE Healthcare, Piscataway, N.J.) and a Molecular Devices Storm 840 phosphorimager in fluorescence mode. […] IC50 values were calculated using Prism software (Graphpad, San Diego, Calif.).
# [3] = molecular target: Phospho-KIT (Tyr719) in GIST430 cells (Homo sapiens, UniProt P10721); assay: GIST430 KIT Western Blot; assay type: cell-based; conditions: 4 hours, read-out: pKIT suppression by western blot analysi GIST430
# Sequence of Phospho-KIT (Tyr719) in GIST430 cells (P10721 with tags, fused parts or gaps DEL560-576/V654A, form open): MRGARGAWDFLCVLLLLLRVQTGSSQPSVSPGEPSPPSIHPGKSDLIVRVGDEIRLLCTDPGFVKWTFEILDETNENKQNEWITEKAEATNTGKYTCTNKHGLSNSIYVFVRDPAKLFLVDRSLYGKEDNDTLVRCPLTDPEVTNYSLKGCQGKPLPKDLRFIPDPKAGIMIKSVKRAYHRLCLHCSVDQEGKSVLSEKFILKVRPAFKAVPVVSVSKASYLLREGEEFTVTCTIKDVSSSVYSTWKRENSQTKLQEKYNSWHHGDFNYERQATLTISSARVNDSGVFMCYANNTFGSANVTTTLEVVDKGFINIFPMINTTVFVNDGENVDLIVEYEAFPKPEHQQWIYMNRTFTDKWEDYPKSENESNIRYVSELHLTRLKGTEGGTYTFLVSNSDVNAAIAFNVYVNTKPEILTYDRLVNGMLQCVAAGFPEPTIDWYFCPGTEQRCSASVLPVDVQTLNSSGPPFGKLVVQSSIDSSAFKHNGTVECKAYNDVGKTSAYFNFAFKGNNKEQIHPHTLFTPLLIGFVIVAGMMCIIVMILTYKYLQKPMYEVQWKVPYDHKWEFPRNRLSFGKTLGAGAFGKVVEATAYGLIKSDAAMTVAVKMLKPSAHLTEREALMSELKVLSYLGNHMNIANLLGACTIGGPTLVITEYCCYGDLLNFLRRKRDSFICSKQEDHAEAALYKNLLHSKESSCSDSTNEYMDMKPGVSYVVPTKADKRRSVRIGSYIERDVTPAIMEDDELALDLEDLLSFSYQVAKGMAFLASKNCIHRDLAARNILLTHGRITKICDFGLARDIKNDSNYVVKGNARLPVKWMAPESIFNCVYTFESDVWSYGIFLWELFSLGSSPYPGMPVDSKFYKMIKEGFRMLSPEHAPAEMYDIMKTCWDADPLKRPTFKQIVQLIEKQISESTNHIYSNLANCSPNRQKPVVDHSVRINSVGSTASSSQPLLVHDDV
IC50 [1] [nM],IC50 [2] [nM],IC50 [3] [nM],SMILES
< 10,< 10,< 10,"CCn1c(=O)c(-c2cc(NC(=O)Nc3ccccc3)c(F)cc2Cl)cc2cnc(N)cc21 [Example 21, 1-(5-(7-amino-1-ethyl-2-oxo-1,2-dihydro-1,6-naphthyridin-3-yl)-4-chloro-2-fluorophenyl)-3-phenylurea]"
> 1000,,10 to 100,"CCn1c(=O)c(-c2cc(NC(=O)Nc3cccc(CN4CCN(C)CC4)c3)c(F)cc2Cl)cc2cnc(NC)cc21 [Example 79, 1-(4-chloro-5-(1-ethyl-7-(methylamino)-2-oxo-1,2-dihydro-1,6-naphthyridin-3-yl)-2-fluorophenyl)-3-(3-((4-methylpiperazin-1-yl)methyl)phenyl)urea]"
,< 10,10 to 100,"CCn1c(=O)c(-c2cc(NC(=O)Nc3cc(F)cc(CN4CCN(C)CC4)c3)c(F)cc2Cl)cc2cnc(NC)cc21 [Example 88, 1-(4-chloro-5-(1-ethyl-7-(methylamino)-2-oxo-1,2-dihydro-1,6-naphthyridin-3-yl)-2-fluorophenyl)-3-(3-fluoro-5-((4-methylpiperazin-1-yl)methyl)phenyl)urea]"
